The target of test [1] is T1, CDK6/cyclin D3 (Homo sapiens, UniProt Q00534).
T1 construct: purchased Carna
Nature of the test: In vitro biochemical kinase activity assay for CDK6/cyclin D3 (HTRF). Particulars: data marked with *: 1 mM ATP in Step 1. How it is done:
III. In Vitro Biochemical Kinase Activity Assay for CDK6/Cyclin D3
The inhibitory effects of the compounds of the present invention on CDK6/cyclin D3 kinase activity were determined using an HTRF assay. The experimental process was as follows: 1. The kinase reaction was carried out in a 384-well plate. 0.02 nM CDK6/cyclin D3 (Carna), 1 mM (or 100 µM) ATP, and 0.3 µM biotin-labeled substrate protein Rb-biotin (Cisbio) were incubated at 30°C for 60 min in a buffer system composed of 5 mM MgCl2, 1 mM DTT, and basal kinase buffer (Cisbio). 2. The detection solution (Cisbio, containing reagents that specifically recognize phosphorylated Rb and Rb-biotin proteins, respectively) was added. The plate was then sealed with a film (to protect from light and volatilization) and incubated at 25°C for 60 min. 3. The plate was transferred to an Envision plate reader to detect FRET signals. (The 665/615 ratio was calculated by reading the emission at 665 nm and 615 nM, respectively.) 4. The IC50 values were determined by analyzing the inhibition at varying compound concentrations using Model 205 in the XLfit software.
(Time-resolved FRET reads energy transfer from a long-lived donor to a nearby acceptor.)

In test [2] the target is T2, CDK4/cyclin D3 (Homo sapiens, UniProt P11802).
T2 construct: purchased Carna
T2 sequence (P11802 whole entry): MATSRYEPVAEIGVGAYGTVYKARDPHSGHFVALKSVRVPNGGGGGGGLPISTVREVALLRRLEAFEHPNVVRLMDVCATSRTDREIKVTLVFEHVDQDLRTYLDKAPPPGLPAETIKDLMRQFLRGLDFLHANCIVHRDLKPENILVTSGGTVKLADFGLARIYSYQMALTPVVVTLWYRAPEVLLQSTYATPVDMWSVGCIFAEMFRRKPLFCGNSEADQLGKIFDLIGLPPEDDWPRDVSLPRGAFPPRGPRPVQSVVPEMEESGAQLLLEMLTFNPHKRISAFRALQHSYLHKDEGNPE
T2 sequence (P30281 whole entry partner): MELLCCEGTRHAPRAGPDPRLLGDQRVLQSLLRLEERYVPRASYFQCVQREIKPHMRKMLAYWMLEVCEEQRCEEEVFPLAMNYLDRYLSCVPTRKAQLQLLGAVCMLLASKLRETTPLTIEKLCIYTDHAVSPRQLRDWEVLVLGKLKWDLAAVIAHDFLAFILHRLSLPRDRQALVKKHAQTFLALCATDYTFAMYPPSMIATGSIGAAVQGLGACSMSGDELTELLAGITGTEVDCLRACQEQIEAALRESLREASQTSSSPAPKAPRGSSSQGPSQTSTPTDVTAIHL
The experiment in a line: In vitro biochemical kinase activity assay for CDK4/cyclin D3 (HTRF). The settings on record: data marked with *: 1 mM ATP in Step 1. How it is done: II. In Vitro Biochemical Kinase Activity Assay for CDK4/Cyclin D3
The inhibitory effects of the compounds of the present invention on CDK4/cyclin D3 kinase activity were determined using an HTRF assay. The experimental process was as follows: • 1. The kinase reaction was carried out in a 384-well plate. 4.9 nM CDK4/cyclin D3 (Carna), 1 mM (or 80 µM) ATP, and 0.3 µM biotin-labeled substrate protein Rb-biotin (Cisbio) were incubated at 30°C for 90 min in a buffer system composed of 50 mM MgCl2, 1 mM DTT, and basal kinase buffer (Cisbio). • 2. The detection solution (Cisbio, containing reagents that specifically recognize phosphorylated Rb and Rb-biotin proteins, respectively) was added. The plate was then sealed with a film (to protect from light and volatilization) and incubated at 25°C for 60 min. • 3. The plate was transferred to an Envision plate reader to detect FRET signals. (The 665/615 ratio was calculated by reading the emission at 665 nm and 615 nM, respectively.) • 4. The IC50 values were determined by analyzing the inhibition at varying compound concentrations using Model 205 in the XLfit software.

T1 sequence (Q00534 whole entry): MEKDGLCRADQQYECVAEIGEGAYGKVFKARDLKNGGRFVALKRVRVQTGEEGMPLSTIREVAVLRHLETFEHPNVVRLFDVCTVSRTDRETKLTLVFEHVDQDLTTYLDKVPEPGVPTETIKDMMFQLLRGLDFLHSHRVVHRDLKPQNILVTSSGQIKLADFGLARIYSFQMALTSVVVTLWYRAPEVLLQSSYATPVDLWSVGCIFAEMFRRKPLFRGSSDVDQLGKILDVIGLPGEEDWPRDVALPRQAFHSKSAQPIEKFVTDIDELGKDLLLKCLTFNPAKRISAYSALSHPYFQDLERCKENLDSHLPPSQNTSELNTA
T1 sequence (P30281 whole entry partner): as the sequence (P30281 whole entry partner) above

With `CCN1CC2(C1)CN(c1ccc(Nc3ncc(Cl)c(C#Cc4cnc(CN5[C@@H](C)COC[C@@H]5C)n4C(C)C)n3)nc1)C2` [Example 104, 5-chloro-4-((2-(((3 S,5 S)-3,5-dimethylmorpholino)methyl)-1-isopropyl-1H-imidazol-5-yl)ethynyl)-N-(5-(6-ethyl-2,6-diazaspiro[3.3]heptan-2-yl)pyridin-2-yl)pyrimidin-2-amine], the IC50 (in general, the concentration at which inhibition is half-maximal) was 0.0452 µM in test [1] and 0.00557 µM in test [2].

Consider `CC(C)n1c(C#Cc2nc(N[C@@H]3CCOC[C@H]3O)ncc2Cl)cnc1CN1CCC[C@H](F)C1` [Example 105, (3S,4R)-4-((5-chloro-4-((2-(((S)-3-fluoropiperidin-1-yl)methyl)-1-isopropyl-1H-imidazol-5-yl)ethynyl)pyrimidin-2-yl)amino)tetrahydro-2H-pyran-3-ol], for which the IC50 was 0.413 µM in test [1] and 0.0264 µM in test [2].

Turning to `CC(=O)N1CCN(Cc2ccc(Nc3ncc(Cl)c(C#Cc4cnc(CN5CCC[C@H](O)C5)n4C(C)C)n3)nc2)CC1` [Example 106, (S)-1-(4-((6-((5-chloro-4-((2-((3-hydroxypiperidin-1-yl)methyl)-1-isopropyl-1H-imidazol-5-yl)ethynyl)pyrimidin-2-yl)amino)pyridin-3-yl)methyl)piperazin-1-yl)ethan-1-one], the half-maximal inhibitory concentration (IC50) is 0.28 µM in test [1] and 0.0333 µM in test [2].

For `CCN1CCN(Cc2ccc(Nc3ncc(Cl)c(C#Cc4cnc(CN5CCC[C@H](O)C5)n4C(C)C)n3)nc2)CC1` [Example 107, (S)-1-((5-((5-chloro-2-((5-((4-ethylpiperazin-1-yl)methyl)pyridin-2-yl)amino)pyrimidin-4-yl)ethynyl)-1-isopropyl-1H-imidazol-2-yl)methyl)piperidin-3-ol], the concentration for half-maximal inhibition (IC50) in test [1] was found to be 0.116 µM; in test [2], 0.00886 µM.

`CCN1CC2(C1)CN(c1ccc(Nc3ncc(Cl)c(C#Cc4cnc(CN5CCC[C@H](O)C5)n4C(C)C)n3)nc1)C2` [Example 108, (S)-1-((5-((5-chloro-2-((5-(6-ethyl-2,6-diazaspiro[3.3]heptan-2-yl)pyridin-2-yl)amino)pyrimidin-4-yl)ethynyl)-1-isopropyl-1H-imidazol-2-yl)methyl)piperidin-3-ol]: the IC50 in test [1] was found to be 0.0519 µM; in test [2], 0.00525 µM.

Regarding `CC(C)n1c(C#Cc2nc(N[C@@H]3CCOC[C@H]3O)ncc2Cl)cnc1CN1CCCC(C)(O)C1` (stereo partly drawn) [Example 110, 1-((5-((5-chloro-2-(((3 S,4R)-3-hydroxytetrahydro-2H-pyran-4-yl)amino)pyrimidin-4-yl)ethynyl)-1-isopropyl-1H-imidazol-2-yl)methyl)-3-methylpiperidin-3-ol], the values for the IC50 in test [1] and in test [2] were 0.451 µM and 0.0361 µM, respectively.

For `CC1(C)OCCn2ncc(C#Cc3nc(N[C@@H]4CCOC[C@H]4O)ncc3Cl)c21` [Example 111, (3 S,4R)-4-((5-chloro-4-((4,4-dimethyl-6,7-dihydro-4H-pyrazolo[5,1-c][1,4]oxazin-3-yl)ethynyl)pyrimidin-2-yl)amino)tetrahydro-2H-pyran-3-ol], the IC50 was found to be 0.335 µM in test [1] and 0.0471 µM in test [2].

Turning to `CC(C)n1c(C#Cc2nc(N[C@@H]3CCOC[C@H]3O)ncc2Cl)cnc1C1CCO1` (stereo partly drawn) [Example 112, (3S,4R)-4-((5-chloro-4-((1-isopropyl-2-(oxetan-2-yl)-1H-imidazol-5-yl)ethynyl)pyrimidin-2-yl)amino)tetrahydro-2H-pyran-3-ol], the concentration for half-maximal inhibition (IC50) in test [1] was 1.24 µM; in test [2], 0.179 µM.

With `CC(C)n1c(C#Cc2nc(Nc3ccc(N4CC5(CN(CC(F)(F)F)C5)C4)cn3)ncc2Cl)cnc1CN1CCC[C@H](O)C1` [Example 113, (S)-1-((5-((5-chloro-2-((5-(6-(2,2,2-trifluoroethyl)-2,6-diazaspiro[3.3]heptan-2-yl)pyridin-2-yl)amino)pyrimidin-4-yl)ethynyl)-1-isopropyl-1H-imidazol-2-yl)methyl)piperidin-3-ol], the half-inhibitory concentration (IC50) is 0.0456 µM in test [1] and 0.00595 µM in test [2].

For the molecule `CC(C)n1c(C#Cc2nc(Nc3ccc(C(=O)N4CCCC4)cn3)ncc2Cl)cnc1C(C)(C)O` [Example 114, (6-((5-chloro-4-((2-(2-hydroxypropan-2-yl)-1-isopropyl-1H-imidazol-5-yl)ethynyl)pyrimidin-2-yl)amino)pyridin-3-yl)(pyrrolidin-1-yl)methanone], the half-inhibitory concentration (IC50) in test [1] came out at 0.0284 µM; in test [2] it was 0.00799 µM.

Turning to `CC(C)n1c(C#Cc2nc(Nc3ccc(N4CC5(CN(C)C5)C4)cn3)ncc2Cl)cnc1CN1CCC[C@H](O)C1` [Example 115, (S)-1-((5-((5-chloro-2-((5-(6-methyl-2,6-diazaspiro[3.3]heptan-2-yl)pyridin-2-yl)amino)pyrimidin-4-yl)ethynyl)-1-isopropyl-1H-imidazol-2-yl)methyl)piperidin-3-ol], the concentration for half-maximal inhibition (IC50) in test [1] was determined as 0.0179 µM; in test [2], 0.00228 µM.

`CC(C)n1c(C#Cc2nc(Nc3ccc(N4CC5(CN(CC(F)F)C5)C4)cn3)ncc2Cl)cnc1CN1CCC[C@H](O)C1` [Example 116, (S)-1-((5-((5-chloro-2-((5-(6-(2,2-difluoroethyl)-2,6-diazaspiro[3.3]heptan-2-yl)pyridin-2-yl)amino)pyrimidin-4-yl)ethynyl)-1-isopropyl-1H-imidazol-2-yl)methyl)piperidin-3-ol]: the IC50 in test [1] was 0.0878 µM; in test [2] it was 0.0057 µM.

On to `CC(C)n1c(C#Cc2nc(N[C@@H]3CCOC[C@H]3O)ncc2Cl)cnc1C(=O)N1CCC[C@H](O)C1` [Example 117, (5-((5-chloro-2-(((3 S,4R)-3-hydroxytetrahydro-2H-pyran-4-yl)amino)pyrimidin-4-yl)ethynyl)-1-isopropyl-1H-imidazol-2-yl)((S)-3-hydroxypiperidin-1-yl)methanone], for which the IC50 came out at 5.55 µM in test [1] and 0.615 µM in test [2].

In the case of `CC(C)n1c(C#Cc2cc(N[C@@H]3CCOC[C@H]3O)ncc2Cl)cnc1C(C)(C)O` [Example 118, (3 S,4R)-4-((5-chloro-4-((2-(2-hydroxypropan-2-yl)-1-isopropyl-1H-imidazol-5-yl)ethynyl)pyridin-2-yl)amino)tetrahydro-2H-pyran-3-ol], the results for the IC50 in test [1] and in test [2] were 0.135 µM and 0.0217 µM, respectively.

Regarding `CC(C)n1c(C#Cc2nc(Nc3ccc(C4C5CN(C)CC54)cn3)ncc2Cl)cnc1C(C)(C)O` (stereo not shown) [Example 119, 2-(5-((5-chloro-2-((5-(3-methyl-3-azabicyclo[3.1.0]hexan-6-yl)pyridin-2-yl)amino)pyrimidin-4-yl)ethynyl)-1-isopropyl-1H-imidazol-2-yl)propan-2-ol], the results for the IC50 in test [1] and in test [2] were 0.0154 µM and 0.00537 µM, respectively.

As to `CC(C)n1c(C#Cc2nc(N[C@@H]3CCOC[C@H]3O)ncc2Cl)cnc1C1CC1` [Example 120, (3 S,4R)-4-((5-chloro-4-((2-cyclopropyl-1-isopropyl-1H-imidazol-5-yl)ethynyl)pyrimidin-2-yl)amino)tetrahydro-2H-pyran-3-ol], the figures for the 50% inhibitory concentration (IC50) in test [1] and in test [2] were 0.13 µM and 0.0261 µM, respectively.

Consider `CC(C)n1c(C#Cc2nc(N[C@@H]3CCOC[C@H]3O)ncc2Cl)cnc1C1(O)CC1` [Example 121, (3 S,4R)-4-((5-chloro-4-((2-(1-hydroxycyclopropyl)-1-isopropyl-1H-imidazol-5-yl)ethynyl)pyrimidin-2-yl)amino)tetrahydro-2H-pyran-3-ol], for which the half-inhibitory concentration (IC50) in test [1] worked out at 0.0759 µM; in test [2], 0.00924 µM.

(Values after patent publication EP4782445A1, “CDK KINASE INHIBITOR AND USE THEREOF” (Abbisko Therapeutics Co., Ltd., priority 2023, dated 2025).)
